Assay results taken from PMC12675537, “Molecular basis for multidrug efflux by an anaerobic-associated RND transporter” (Nature Communications, 2025).
Substitutions are numbered along the chain they refer to. Names and notes keep the numbering of the source.

Tests used:
MdtF [1] = biological target: T1, MdtF (Escherichia coli, UniProt P37637); experiment: fluorescence polarisation; thermal stabilisation (CD, DSC, nanoDSF); type: binding
T1 construct: MdtF-6xHis (C-terminal His tag) in SMALP native-lipid nanodiscs; homotrimer

MdtF [2] = biological target: T2, MdtF (Escherichia coli, UniProt P37637, V610F); experiment: fluorescence polarisation Kd; thermal stabilisation (CD, DSC, nanoDSF); type: binding
T2 construct: MdtF-6xHis (C-terminal His tag) in SMALP native-lipid nanodiscs; homotrimer
T2 sequence (P37637 1-1037 V610F): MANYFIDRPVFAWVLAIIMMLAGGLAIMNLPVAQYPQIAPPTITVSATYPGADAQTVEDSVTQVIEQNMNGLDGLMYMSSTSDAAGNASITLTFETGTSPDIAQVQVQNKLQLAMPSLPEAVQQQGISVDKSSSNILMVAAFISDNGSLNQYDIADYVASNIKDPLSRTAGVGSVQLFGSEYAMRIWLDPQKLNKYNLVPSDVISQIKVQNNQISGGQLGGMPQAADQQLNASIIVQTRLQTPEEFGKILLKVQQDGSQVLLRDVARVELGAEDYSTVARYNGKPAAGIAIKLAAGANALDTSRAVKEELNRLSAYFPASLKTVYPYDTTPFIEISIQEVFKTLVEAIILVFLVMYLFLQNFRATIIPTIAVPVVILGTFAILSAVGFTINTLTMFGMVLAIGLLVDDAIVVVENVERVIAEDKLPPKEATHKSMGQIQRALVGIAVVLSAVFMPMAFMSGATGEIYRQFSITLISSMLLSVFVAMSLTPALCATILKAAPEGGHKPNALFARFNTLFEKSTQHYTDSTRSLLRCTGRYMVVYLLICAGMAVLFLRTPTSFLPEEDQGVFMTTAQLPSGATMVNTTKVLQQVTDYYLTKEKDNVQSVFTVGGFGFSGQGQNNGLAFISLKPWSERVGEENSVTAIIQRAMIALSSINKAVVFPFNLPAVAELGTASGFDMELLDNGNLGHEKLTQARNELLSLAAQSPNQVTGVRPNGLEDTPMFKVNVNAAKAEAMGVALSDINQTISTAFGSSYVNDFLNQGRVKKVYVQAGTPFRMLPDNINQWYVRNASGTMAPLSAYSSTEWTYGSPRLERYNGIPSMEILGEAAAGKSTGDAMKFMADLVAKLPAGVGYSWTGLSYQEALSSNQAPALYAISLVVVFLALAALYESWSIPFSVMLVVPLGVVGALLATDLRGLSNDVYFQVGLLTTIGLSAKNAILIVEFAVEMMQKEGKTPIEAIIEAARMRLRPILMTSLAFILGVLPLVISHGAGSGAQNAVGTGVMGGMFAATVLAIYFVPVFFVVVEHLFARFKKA

cryo-EM structure = biological target: the molecule itself; experiment: cryo-EM structure

## CC/N=c1\cc2oc3cc(NCC)c(C)cc3c(-c3ccccc3C(=O)OCC)c-2cc1C [R6G, Rhodamine 6G]
MdtF [1]
  Kd: 390 ± 90 nM
MdtF [2]
  Kd: 720 ± 90 nM

B1: Escherichia coli multidrug transporter MdtF, wild type (MdtF-6xHis) in SMA lipid particles (natural protein)
chain: T2 sequence (P37637 1-1037 V610F)
notes: also called MdtF^WT; apo-MdtF^WT; source: E. coli C43(DE3) ΔacrAB, extracted from membranes with SMA 2000 into SMALPs, purified (Ni-NTA, SEC)
cryo-EM structure
  stoichiometry N: 3

B2: Escherichia coli multidrug transporter MdtF with the single-point mutation V610F (MdtF-6xHis) in SMA lipid particles (natural protein)
chain: T2 sequence (P37637 1-1037 V610F) with V610F
notes: also called MdtF^V610F; apo-MdtF^V610F; source: E. coli C43(DE3) ΔacrAB, extracted from membranes with SMA 2000 into SMALPs, purified (Ni-NTA, SEC)
cryo-EM structure
  binding result: binds
